Data from patent publication US20250345391A1, “COMPOSITIONS AND METHODS FOR THE TREATMENT OF SEPSIS” (Children's Hospital Medical Center, priority 2022, published 2025).

System: AMPK
Experiment: Western blot of AMPKα and pAMPKα in thoracic aorta cytosol after CLP
Assay type: in vivo, Male C57BL/6 mice
Settings: 6 h after CLP; colivelin i.p. at 1 h after CLP; vs vehicle; dose-independent
From the text: The investigation conformed to the National Institutes of Health Guide for the Care and Use of Laboratory Animals (Eighth Edition, 2011) and was approved by the Institutional Animal Care and Use Committee of the Cincinnati Children's Hospital Medical Center. Male C57BL/6 mice were obtained from Charles River Laboratories International, Inc. (Wilmington, MA). Mice were used at 3-5 months of age to mimic the equivalent for human ranges from 20-25 years (29). Male mice only were chosen for the experimentation to avoid interference from female hormonal fluctuations in sepsis responses during the estrous cycle. Mice were housed in pathogen-free conditions under a 10-h light/14-h dark cycle with free access to food and water. […]
Subcellular fractionation was performed using a centrifugation model. […] The Bradford protein assay was then used for quantitative determination of total proteins.
Cytosol content of total AMPKα1/α2 and its phosphorylated form pAMPKα1/α2 (Santa Cruz Biotechnology, Dallas, TX, USA), cytosol and nuclear content of STAT3 and its phosphorylated forms pSTAT3(Tyr705) and pSTAT3(Ser727) (Cell Signaling Technology, Danvers, MA, USA) were determined by immunoblot analyses; β-actin was concomitantly probed with mouse anti-β-actin (Santa Cruz Biotechnology) as a loading control for both cytosol and nuclear proteins. […] The immunoreaction was detected by near-infrared fluorescence. […]

Substance: Colivelin (SALLRSIPAPAGASRLLLLTGEIDLP)
- Ratio of the phosphorylated/total forms of AMPKα (p-AMPKα/AMPKα), cytosol of thoracic aortas: significantly increased
